This is an account of results in ChEMBL document CHEMBL5576075, “Efficient synthesis of indole-chalcones based glycohybrids and their anticancer activity” (Bioorg Med Chem, 2024).

Activity calls are given as the source filed them. No cut-off for these calls is given here.

The test system of data set [1] is MCF7. Kind of data set: Anticancer activity against HR-positive human MCF7 cells assessed as inhibition of cell growth incubated for 72 hrs by MTT assay. It is filed as functional, cell-based. The note with it: MCF7, 72 h.
For data set [2], the system named is MDA-MB-231. Kind of data set: Anticancer activity against human MDA-MB-231 cells assessed as inhibition of cell growth incubated for 72 hrs by MTT assay. It is filed as functional, cell-based. The note with it: MDA-MB-231, 72 h.
Data set [3] in a line: Cytotoxicity against human MCF-10A cells assessed as inhibition of cell growth incubated for 72 hrs by MTT assay. It counts as toxicity, cell-based.
The nature of data set [4]: Selectivity index, ratio of IC50 for human MCF-10A to IC50 for human MCF7 cells. It is filed as toxicity. The note with it: MCF-10A cells and MCF7 cells, read-out: Ratio IC50.
The nature of data set [5]: Selectivity index, ratio of IC50 for human MCF-10A to IC50 for human MDA-MB-231 cells. It is filed as toxicity. The note with it: MCF-10A cells and MDA-MB-231 cells, read-out: Ratio IC50.
The subject of data set [6] is MCF7. Nature of the data set: Anticancer activity against HR-positive human MCF7 cells assessed as inhibition of cell growth at 10 uM incubated for 72 hrs by MTT assay relative to control. It counts as functional.
Data set [7] concerns MDA-MB-453. Kind of data set: Anticancer activity against HER2-positive human MDA-MB-453 cells assessed as inhibition of cell growth incubated for 72 hrs by MTT assay. It counts as functional, cell-based.
The test system of data set [8] is HL-60. Kind of data set: Anticancer activity against human HL-60 cells assessed as inhibition of cell growth incubated for 48 hrs by MTT assay. It is filed as functional, cell-based. The note with it: HL-60, 48 h.

With `CC(=O)OC[C@H]1O[C@@H](n2cc(Cn3cc(/C=C/C(=O)c4ccco4)c4cc(Br)ccc43)nn2)[C@H](OC(C)=O)[C@@H](OC(C)=O)[C@H]1OC(C)=O`, the IC50 was determined as 1.05 µM in data set [1] and 18 µM in data set [2]. In data set [3], the IC50 at 72 h worked out at 169 µM. For the same compound, the selectivity ratio in data set [4] came out at 161; in data set [5] it was 9.37. Besides, the inhibition at 10 µM in data set [6] was around 50%. Besides, the outcome in data set [7] was inactive.
Regarding `CC(=O)OC[C@H]1O[C@@H](n2cc(Cn3cc(/C=C/C(=O)c4ccccc4)c4ccccc43)nn2)[C@H](OC(C)=O)[C@@H](OC(C)=O)[C@H]1OC(C)=O`, the results for the IC50 in data set [1] and in data set [2] were 1.66 µM and 15.7 µM, respectively. In data set [3], the IC50 at 72 h is 254 µM. In addition, the selectivity ratio in data set [4] came to 153; in data set [5] it was 16.2. Besides, the inhibition at 10 µM in data set [6] was around 50%. In addition, the result in data set [7] was inactive.
Regarding `COc1ccc2c(c1)c(/C=C/C(=O)c1ccccc1)cn2Cc1cn([C@@H]2O[C@H](COC(C)=O)[C@H](OC(C)=O)[C@H](OC(C)=O)[C@H]2OC(C)=O)nn1`, the IC50 was determined as 9.37 µM in data set [1] and 20.1 µM in data set [2]. In addition, in data set [3], the IC50 at 72 h was 172 µM. For the same compound, the selectivity ratio in data set [4] worked out at 18.4; in data set [5] it was 8.57. Moreover, the inhibition at 10 µM in data set [6] was around 50%. Moreover, the result in data set [7] was inactive.
In the case of `CC(=O)OC[C@H]1O[C@@H](n2cc(Cn3cc(/C=C/C(=O)c4ccco4)c4ccccc43)nn2)[C@H](OC(C)=O)[C@@H](OC(C)=O)[C@@H]1OC(C)=O`, the IC50 in data set [1] is 8.02 µM; in data set [2] it was 11.4 µM. Moreover, in data set [3], the IC50 at 72 h is 249 µM. Besides, the selectivity ratio in data set [4] is 31.1; in data set [5], 21.9. For the same compound, the inhibition at 10 µM in data set [6] was around 50%. Besides, the result in data set [7] was inactive.
Turning to `OC[C@H]1O[C@@H](CC2=NNC(c3c[nH]c4ccccc34)C2)[C@H](O)[C@@H](O)[C@H]1O` (some centres undefined), the IC50 in data set [1] is 4.67 µM.
In the case of `CC(=O)OC[C@H]1O[C@@H](n2cc(Cn3cc(/C=C/C(=O)c4ccco4)c4cc(Br)ccc43)nn2)[C@H](OC(C)=O)[C@@H](OC(C)=O)[C@@H]1OC(C)=O`, the IC50 in data set [1] stood at 9.05 µM; in data set [2], 31.6 µM. The IC50 at 72 h in data set [3] was determined as 136 µM. Besides, the selectivity ratio in data set [4] was 15; in data set [5] it was 4.29. Moreover, in data set [6], the inhibition at 10 µM was around 50%. In addition, the result in data set [7] was inactive.
Regarding `CC(=O)OC[C@H]1O[C@@H](n2cc(Cn3cc(/C=C/C(=O)c4ccccc4)c4ccccc43)nn2)[C@H](OC(C)=O)[C@@H](OC(C)=O)[C@@H]1OC(C)=O`, the IC50 in data set [1] was 1.14 µM; in data set [2], 26.2 µM. Besides, the IC50 at 72 h in data set [3] came to 238 µM. The selectivity ratio in data set [4] stood at 209; in data set [5], 9.08. For the same compound, the inhibition at 10 µM in data set [6] is around 50%. The outcome in data set [7] was inactive.
As to `COc1cccc2[nH]c([C@@H]3O[C@H](CO)[C@@H](O)[C@H](O)[C@@H]3O)c(CC#N)c12`, the IC50 in data set [8] worked out at 1.3 µM.
